{
  "source": "patent US20170056380A1",
  "about": "“Systems, Methods, Techniques, and Compounds in Research and Treatment of Portal Hypertension and other Conditions” (priority 2014, published 2017)",
  "key": {"[1]": {"target": "T1, eNOS cytochrome c reductase activity (Rattus norvegicus, UniProt Q62600)", "T1 construct": "endogenous in cells; host or cells: primary liver sinusoidal endothelial cells from male Sprague-Dawley rats (normal or bile-duct-ligated)", "T1 sequence (Q62600 1-1202)": "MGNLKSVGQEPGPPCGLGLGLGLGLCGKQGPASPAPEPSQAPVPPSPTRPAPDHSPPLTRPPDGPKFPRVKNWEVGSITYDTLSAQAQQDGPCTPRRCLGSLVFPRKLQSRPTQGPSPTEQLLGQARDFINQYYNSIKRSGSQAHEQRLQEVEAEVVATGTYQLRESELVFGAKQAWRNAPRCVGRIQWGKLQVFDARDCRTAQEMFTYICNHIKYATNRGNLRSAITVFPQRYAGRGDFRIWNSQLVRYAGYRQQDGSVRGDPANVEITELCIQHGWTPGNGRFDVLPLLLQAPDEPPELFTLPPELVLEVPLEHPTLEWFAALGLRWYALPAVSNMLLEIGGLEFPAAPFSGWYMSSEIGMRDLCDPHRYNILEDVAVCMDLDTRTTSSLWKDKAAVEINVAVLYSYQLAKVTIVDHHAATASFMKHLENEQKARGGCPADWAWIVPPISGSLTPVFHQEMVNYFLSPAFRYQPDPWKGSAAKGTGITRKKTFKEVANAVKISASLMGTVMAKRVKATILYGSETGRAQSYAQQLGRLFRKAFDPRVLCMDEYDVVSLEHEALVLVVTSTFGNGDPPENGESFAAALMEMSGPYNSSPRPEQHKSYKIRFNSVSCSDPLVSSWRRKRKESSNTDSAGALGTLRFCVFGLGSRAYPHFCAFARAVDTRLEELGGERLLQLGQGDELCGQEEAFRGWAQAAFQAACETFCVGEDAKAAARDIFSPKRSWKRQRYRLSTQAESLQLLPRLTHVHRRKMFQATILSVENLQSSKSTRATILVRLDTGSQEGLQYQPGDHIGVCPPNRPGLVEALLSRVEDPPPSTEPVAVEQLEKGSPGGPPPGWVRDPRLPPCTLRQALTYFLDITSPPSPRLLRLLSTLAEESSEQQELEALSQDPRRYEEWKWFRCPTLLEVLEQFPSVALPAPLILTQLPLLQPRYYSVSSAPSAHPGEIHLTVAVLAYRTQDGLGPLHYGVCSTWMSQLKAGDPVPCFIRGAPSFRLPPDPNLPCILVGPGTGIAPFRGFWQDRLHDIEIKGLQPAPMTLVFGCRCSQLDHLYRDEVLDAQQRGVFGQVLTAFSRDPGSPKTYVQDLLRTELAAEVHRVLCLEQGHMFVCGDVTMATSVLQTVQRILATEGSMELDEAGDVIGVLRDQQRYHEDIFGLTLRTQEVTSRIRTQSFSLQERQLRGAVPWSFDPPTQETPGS", "assay": "NADPH-dependent cytochrome c reductase assay in sinusoidal endothelial cell lysates", "type": "cell-based", "protocol": "Cell isolation and culture. Sinusoidal endothelial cells were isolated from male Sprague-Dawley rats (450-500 g) (Harlan, Indianapolis, Ind.). In brief, after in situ perfusion of the liver with 20 mg/100 mg pronase (Roche Molecular Biochemicals, Indianapolis, Ind.), followed by collagenase (Worthington Biochemical, Lakewood, N.J.), dispersed cell suspensions were removed from a layered discontinuous density gradient of 8.2 and 15.6% Accudenz (Accurate Chemical and Scientific, Westbury, N.Y.), further purified by centrifugal elutriation (18 ml/min flow), and were grown in medium containing 20% serum (10% horse/calf). The purity of endothelial cells was documented by their uptake of fluorescently labeled di-l-acetoacetylated low-density lipoprotein as described (21). Only primary sinusoidal endothelial isolates of >95% purity were used for study. Experiments were performed with cells frorrr a minimum three different isolations (for all experiments).\nNOS activity assay. NOS activity from sinusoidal endothelial cell lysates was assessed by measuring the conversion of L-[3H]arginine to L-[3H]citrulline as described (6) per the manufacturer's instructions (Cayman Chemical). […] Radiolabeled counts per minute of generated L-citrulline were measured and used to determine L-NAME-inhibitable NOS activity (thus, each experiment included total counts and background counts). […] The reductase activities of sinusoidal endothelial cells with or without cicletanine exposure were determined using the NADPH-dependent cytochrome c assay. […] The reduction of cytochrome c was monitored at 550 nm at 25° C. […] Turnover number was calculated using the absorbance change during this 30-s interval and an extinction coefficient of 0.021/μM."}, "[2]": {"test_system": "bile duct-ligated (BDL) mice", "assay": "Portal pressure measurement in bile duct-ligated and sham-operated mice", "type": "in vivo, BALB/c mice", "conditions": "5 mg·kg−1·day−1 by gavage for 10 days", "protocol": "Animal model of liver injury and portal hypedension. Liver injury and portal hypertension were induced by performing bile duct ligation in 450- to 500-gram male retired breeder Sprague-Dawley rats as described in Liu and 20- to 25-gram male BALB/c mice. Briefly, bile duct ligation was performed by surgical isolation and ligation of the common bile duct. This model creates a portal-based fibrogenic response and portal hypertension 10-14 days after surgery (Liu). For study of injured sinusoidal endothelial cells, we used the rat model of bile duct ligation (10-14 days postsurgery); for in vivo study (primarily to conserve the use of active compound), we used the mouse model of bile duct ligation (examining portal pressure 4 wk postsurgery). In sham-operated rats or mice, laparotomy without isolation and section of the bile duct was performed. Studies were approved by the local Institutional Animal Care and Use Committees. Portal pressure measurement. Portal hypertension was induced in male BALB/c mice by bile duct ligation as above. Cicletanine (5 mg·kg^−1·day^−1) or vehicle was given by gavage as a single daily dose for 10 days before portal pressure measurement as described in Liue. […] A calibrated low-pressure transducer (Digi-Med, Louisville, Ky.) was connected to the portal vein catheter, and portal pressure was recorded continuously using the Digi-Med Integrator 200 System (Digi-bled)."}},
  "data": [
    {"smiles": "Cc1ncc2c(c1O)COC2c1ccc(Cl)cc1", "note": "(centres unmarked) [cicletanine, 3-(4-chlorophenyl)-1,3-dihydro-7-hydroxy-6-methylfuro-(3,4-c) pyridine]", "values": [
      {"measurement": "rate of cytochrome c reduction compared with no cicletanine treatment", "setting": "[1]; CaM stimulation", "value": "twofold more"},
      {"measurement": "rate of cytochrome c reduction compared with no cicletanine treatment", "setting": "[1]; basal level", "value": "twofold more"},
      {"measurement": "cytochrome c reductase activity", "setting": "[1]; cicletanine 100 nM, 2 h", "value": "significant increase"},
      {"measurement": "portal pressure", "setting": "[2]; BDL mice", "value": "significantly reduced"},
      {"measurement": "portal pressure", "setting": "[2]; sham-operated mice", "value": "Slight and nonsignificant decreases"}
    ]}
  ]
}
